Laboratory results as given in ChEMBL document CHEMBL4130568, “Benzoxaboroles as Efficient Inhibitors of the β-Carbonic Anhydrases from Pathogenic Fungi: Activity and Modeling Study” (ACS Med Chem Lett, 2017).

What was measured:
Carbonic anhydrase = biological target: T1, Carbonic anhydrase (Candida glabrata CBS 138, UniProt Q6FTL6); test: Inhibition of Candida glabrata Nce103 incubated for 15 mins prior to testing by stopped flow CO2 hydrase assay; parameters: species or system Nakaseomyces glabratus
T1 sequence (Q6FTL6 whole entry): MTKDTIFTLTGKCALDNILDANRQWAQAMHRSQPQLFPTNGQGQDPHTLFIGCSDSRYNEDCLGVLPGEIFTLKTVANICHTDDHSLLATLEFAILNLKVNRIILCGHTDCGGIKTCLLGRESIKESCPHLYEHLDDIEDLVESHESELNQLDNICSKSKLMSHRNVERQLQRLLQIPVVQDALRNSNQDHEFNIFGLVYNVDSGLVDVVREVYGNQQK

Carbonic anhydrase 2 [1] = biological target: Carbonic anhydrase 2 (Homo sapiens, UniProt P00918); test: Inhibition of human carbonic anhydrase-2 incubated for 15 mins prior to testing by stopped flow CO2 hydrase assay
Carbonic anhydrase 2 [2] = biological target: T2, Carbonic anhydrase 2 (Cryptococcus neoformans, UniProt Q3I4V7); test: Inhibition of Cryptococcus neoformans Can2 incubated for 15 mins prior to testing by stopped flow CO2 hydrase assay
T2 sequence (Q3I4V7 whole entry): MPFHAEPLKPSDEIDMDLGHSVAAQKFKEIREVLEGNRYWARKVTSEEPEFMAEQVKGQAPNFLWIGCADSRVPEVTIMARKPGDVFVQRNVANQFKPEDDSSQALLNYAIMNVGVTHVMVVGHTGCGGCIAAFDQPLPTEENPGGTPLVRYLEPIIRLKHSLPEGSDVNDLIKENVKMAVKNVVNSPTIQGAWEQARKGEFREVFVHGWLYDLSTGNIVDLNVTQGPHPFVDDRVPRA

Carbonic anhydrase 1 = Carbonic anhydrase 1 (Homo sapiens, UniProt P00915); test: Inhibition of human carbonic anhydrase-1 incubated for 15 mins prior to testing by stopped flow CO2 hydrase assay
[3] = Inhibition of Malassezia globosa beta-carbonic anhydrase incubated for 15 mins prior to testing by stopped flow CO2 hydrase assay

Chain of Carbonic anhydrase 1 (P00915 whole entry): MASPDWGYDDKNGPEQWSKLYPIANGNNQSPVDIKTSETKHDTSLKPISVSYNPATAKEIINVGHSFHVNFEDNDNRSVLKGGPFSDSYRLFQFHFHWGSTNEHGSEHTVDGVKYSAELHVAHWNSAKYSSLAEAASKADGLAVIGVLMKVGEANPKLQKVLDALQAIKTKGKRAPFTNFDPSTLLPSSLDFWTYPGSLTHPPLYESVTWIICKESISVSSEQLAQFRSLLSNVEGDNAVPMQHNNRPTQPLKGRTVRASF

`OB1OCc2ccc(NC(=S)Nc3ccccc3)cc21` gave a Ki (Carbonic anhydrase) of 97 nM, a Ki (Carbonic anhydrase 2 [1]) of 1620 nM and a Ki (Carbonic anhydrase 2 [2]) of 198 nM. It also gave a Ki (Carbonic anhydrase 1) of 532 nM and a Ki [3] of 21300 nM.
`OB1OCc2ccc(NC(=S)Nc3ccc(F)cc3)cc21` showed a Ki (Carbonic anhydrase) of 86 nM, a Ki (Carbonic anhydrase 2 [1]) of 1500 nM and a Ki (Carbonic anhydrase 2 [2]) of 86 nM. For the same molecule, the Ki (Carbonic anhydrase 1) was 355 nM and the Ki [3] was 30100 nM.
With `Cc1cc(Cl)cc(CNC(=O)Nc2ccc3c(c2)B(O)OC3)c1` the Ki (Carbonic anhydrase) was 79 nM, the Ki (Carbonic anhydrase 2 [2]) was 400 nM and the Ki [3] was 86800 nM.
Molecule `O=C(Nc1ccc(Cl)cc1)Nc1ccc2c(c1)B(O)OC2` has a Ki (Carbonic anhydrase) of 81 nM, a Ki (Carbonic anhydrase 2 [2]) of 92 nM and a Ki [3] of 77900 nM.
For `Cc1ccc(NC(=S)Nc2ccc3c(c2)B(O)OC3)cc1`, the Ki (Carbonic anhydrase) was 89 nM, the Ki (Carbonic anhydrase 2 [2]) was 181 nM and the Ki [3] was 24900 nM.
Molecule `COc1ccc(NC(=S)Nc2ccc3c(c2)B(O)OC3)cc1` has a Ki (Carbonic anhydrase) of 86 nM, a Ki (Carbonic anhydrase 2 [2]) of 89 nM and a Ki [3] of 28800 nM.
In the case of `O=[N+]([O-])c1ccc(NC(=S)Nc2ccc3c(c2)B(O)OC3)cc1`, the Ki (Carbonic anhydrase) is reported as 96 nM, the Ki (Carbonic anhydrase 2 [1]) is reported as > 10000 nM and the Ki (Carbonic anhydrase 2 [2]) is reported as 79 nM. The Ki (Carbonic anhydrase 1) was 385 nM and the Ki [3] was 8680 nM.
Molecule `CC(=O)c1ccc(NC(=O)Nc2ccc3c(c2)B(O)OC3)cc1` has a Ki (Carbonic anhydrase) of 203 nM, a Ki (Carbonic anhydrase 2 [2]) of 65 nM and a Ki [3] of 62200 nM.
In the case of `OB1OCc2cc(F)ccc21` [TAVABOROLE], the Ki (Carbonic anhydrase) is reported as 72 nM, the Ki (Carbonic anhydrase 2 [1]) is reported as 462 nM and the Ki (Carbonic anhydrase 2 [2]) is reported as 89 nM. It also gave a Ki (Carbonic anhydrase 1) of 2020 nM and a Ki [3] of 99000 nM.
`O=C(NCc1ccco1)Nc1ccc2c(c1)B(O)OC2` showed a Ki (Carbonic anhydrase) of 96 nM, a Ki (Carbonic anhydrase 2 [2]) of 283 nM and a Ki [3] of 55600 nM.
Work on `OB1OCc2ccc(NC(=S)NCc3ccco3)cc21` yielded a Ki (Carbonic anhydrase) of 229 nM, a Ki (Carbonic anhydrase 2 [2]) of 236 nM and a Ki [3] of 6100 nM.
In the case of `OB1OCc2ccc(NC(=S)Nc3ccc4ccccc4c3)cc21`, the Ki (Carbonic anhydrase) is reported as 339 nM, the Ki (Carbonic anhydrase 2 [2]) is reported as 573 nM and the Ki [3] is reported as 30600 nM.
For `O=C(NCc1ccccc1)Nc1ccc2c(c1)B(O)OC2`, the Ki (Carbonic anhydrase) was 201 nM, the Ki (Carbonic anhydrase 2 [1]) was 439 nM and the Ki (Carbonic anhydrase 2 [2]) was 602 nM. The Ki (Carbonic anhydrase 1) was 557 nM and the Ki [3] was 58200 nM.
`O=C(Nc1ccc(F)cc1)Nc1ccc2c(c1)B(O)OC2` gave a Ki (Carbonic anhydrase) of 75 nM, a Ki (Carbonic anhydrase 2 [1]) of 480 nM and a Ki (Carbonic anhydrase 2 [2]) of 78 nM. It also gave a Ki (Carbonic anhydrase 1) of 235 nM and a Ki [3] of 76200 nM.
`OB1OCc2ccc(NC(=S)Nc3ccc(C(F)(F)F)cc3)cc21` showed a Ki (Carbonic anhydrase) of 112 nM, a Ki (Carbonic anhydrase 2 [1]) of 1840 nM and a Ki (Carbonic anhydrase 2 [2]) of 275 nM. It also gave a Ki (Carbonic anhydrase 1) of 417 nM and a Ki [3] of 49800 nM.
In the case of `OB1OCc2ccccc21` [BENZOXABOROLE], the Ki (Carbonic anhydrase) is reported as 260 nM, the Ki (Carbonic anhydrase 2 [2]) is reported as 174 nM and the Ki [3] is reported as 109000 nM.
In the case of `OB1OCc2ccc(NC(=S)NCCc3ccccc3)cc21`, the Ki (Carbonic anhydrase) is reported as 467 nM, the Ki (Carbonic anhydrase 2 [2]) is reported as 676 nM and the Ki [3] is reported as 22500 nM.
`O=C(Nc1ccccc1)Nc1ccc2c(c1)B(O)OC2` showed a Ki (Carbonic anhydrase) of 86 nM, a Ki (Carbonic anhydrase 2 [1]) of 730 nM and a Ki (Carbonic anhydrase 2 [2]) of 81 nM. The Ki (Carbonic anhydrase 1) was 654 nM and the Ki [3] was 63700 nM.
For `O=C(Nc1ccc(C(F)(F)F)cc1)Nc1ccc2c(c1)B(O)OC2`, the Ki (Carbonic anhydrase) was 96 nM, the Ki (Carbonic anhydrase 2 [1]) was 456 nM and the Ki (Carbonic anhydrase 2 [2]) was 84 nM. The Ki (Carbonic anhydrase 1) was 487 nM and the Ki [3] was 73600 nM.
Work on `Nc1ccc2c(c1)B(O)OC2` yielded a Ki (Carbonic anhydrase) of 244 nM, a Ki (Carbonic anhydrase 2 [1]) of 590 nM and a Ki (Carbonic anhydrase 2 [2]) of 93 nM. For the same molecule, the Ki (Carbonic anhydrase 1) was 9430 nM and the Ki [3] was 44600 nM.
For `O=[N+]([O-])c1ccc2c(c1)B(O)OC2`, the Ki (Carbonic anhydrase) was 89 nM, the Ki (Carbonic anhydrase 2 [1]) was 504 nM and the Ki (Carbonic anhydrase 2 [2]) was 88 nM. It also gave a Ki (Carbonic anhydrase 1) of 6350 nM and a Ki [3] of 91300 nM.
Molecule `O=C(Nc1ccc2c(c1)B(O)OC2)Nc1c(Cl)cc(Cl)cc1Cl` has a Ki (Carbonic anhydrase) of 81 nM, a Ki (Carbonic anhydrase 2 [2]) of 73 nM and a Ki [3] of 98600 nM.
